Assay results: article PMC6100056, “Antitumor Effects and Delivery Profiles of Menahydroquinone-4 Prodrugs with Ionic or Nonionic Promoiety to Hepatocellular Carcinoma Cells” (Molecules : A Journal of Synthetic Chemistry and Natural …, 2018)
Counter-ions that a name gives are not always drawn.

What was measured:
Type in all cases: in vitro ADME
[1] = Uptake of MKH-ester derivatives in HCC cells (Michaelis-Menten kinetics); details: human, Michaelis-Menten fit, 95% confidence interval in square brackets
Method: (§1) To assess the uptake of the intrinsic MKH-ester derivatives as the first step of MKH delivery into HCC cells, the velocities of uptake of MKH-ester derivatives were plotted and fitted with the Michaelis--Menten model (as shown in Figure 3), and the calculated kinetic parameters were determined (Table 1). All three derivatives increased in both PLC/PRF/5 and SK-Hep-1 cells in a dose-dependent manner. The uptake of MKH-SUC was clearly higher than that of MKH-DMG and MKH-ACT at all concentrations examined. The ratio of the […] (Vmax/Km) for MKH-SUC was about 5- to 10-fold higher than those for MKH-ACT and MKH-DMG in both cell lines.
(§2) HCC cells were plated at 1.5 × 10^5 cells/well in 6-well plates and allowed to attach for 48 h. Cells were cultured in medium containing MK-4, MKH-ACT, MKH-DMG or MKH-SUC for various intervals. After the drug exposure, media were removed, and cells were washed three times with PBS. Cells were collected in 1 mL of PBS and sonicated. The cell homogenates were combined with an equal volume of methanol and three times volume of n-hexane, vortexed for 2 min and centrifuged at 1750× g for 10 min. The organic layer was evaporated under N2 gas. The residue was reconstituted with 100 μL of methanol, sonicated for 10 s and subjected to LC-UV or LC-MS/MS analysis, as described below. The protein concentration of the cell homogenate was determined using a BCA protein assay kit.
(§3) The LC system was the same as that described in the 4.8.1 LC-MS/MS section, and the UV detector was a Prominence SPD-20A (Shimadzu Corp., Kyoto, Japan). Separations were performed on the same column mentioned in the 4.8.1 LC-MS/MS section and monitored at a wavelength of 240 nm. The mobile flow was a binary gradient: (A) 0.1% acetic acid in water and (B) 0.1% acetic acid in methanol. The total flow rate was 0.3 mL/min; 0 min at 80% B, 1 min at 80% B, 4.0 min at 100% B, 7.0 min at 100% B and 8.0 min at 80% B. The Column temperature was 40 °C. The retention times were as follows: MKH-DMG, 9.2 min; MKH-ACT, 8.2 min; and MKH-SUC, 6.6 min.
(§4) For the determination of Km and Vmax for the uptake and enzymatic activation of MKH-esters, concentration-dependency data were fit to the Michaelis--Menten equation:V = Vmax·[S]/(Km + [S])(1) where V represents the velocity of action between the substrate and transportation/enzymatic reaction, [S] refers to the concentration of the substrate and Km is defined as the concentration of substrate at the half-maximal rate of action (Vmax). Data were analyzed by GraphPad Prism (GraphPad Software).

[2] = system: PLC/PRF/5 cells; test: as above; details: for Vmax (uptake of MKH-ester): PLC/PRF/5 cells, Michaelis-Menten fit, 95% confidence interval in square brackets
Method: as §1, §2, §3, §4

[3] = system: SK-Hep-1 cells; test: as above; details: Michaelis-Menten fit, 95% confidence interval in square brackets
Method: as §1, §2, §3, §4

[4] = system: esterase; test: Regeneration (hydrolysis) of MKH-ester derivatives to MKH in S9 fractions; details: human, pH 7.4, 37 °C, Michaelis-Menten fit, 95% confidence interval in square brackets
Method: To assess the regeneration to the parental form, MKH, from the MKH-ester derivatives by an esterase of HCC, MKH-ACT, MKH-DMG and MKH-SUC were incubated at 37 °C in S9 fractions obtained from PLC/PRF/5 or SK-Hep-1 cells. The velocities of MK-4 generated in the S9 fractions were plotted as the amount of MKH, because MKH is rapidly oxidized to MK-4 during drug extraction and measurement. The regeneration versus […] profile was fitted by the Michaelis--Menten model (shown in Figure 4) and the kinetic parameters were calculated (Table 2). The regeneration velocities of MKH-ACT in both PLC/PRF/5 and SK-Hep-1 cells reached a plateau at about 3 μM MKH-ACT. MKH-DMG reached a plateau in PLC/PRF/5 and SK-Hep-1 cells at 25 μM and about 6 μM MKH-DMG, respectively. MKH-SUC reached a plateau in PLC/PRF/5 and SK-Hep-1 cells at about 0.6 μM and about 1.5 μM MKH-SUC, respectively. The level scale of MKH regeneration from MKH-SUC was about 100-fold higher than those of MKH-ACT and MKH-DMG.
The hydrolysis of the esters was performed at 37 °C in S9 fractions of PLC/PRF/5 and SK-Hep-1 cells after ultrasonic homogenization and centrifugation (10,000× g, 1 h) in isotonic phosphate buffer (pH 7.4). Stock solutions of each ester were made in the same manner as the cell viability assay, and the solutions were diluted with 0.1% w/v albumin in PBS. The enzymatic reactions were initiated by adding 5 μL of the diluted of each ester into amber test tubes containing 95 μL of preheated S9 fractions. A BCA protein assay (PIERCE/Thermo Fisher Scientific Inc., Waltham, MA, USA) was used to determine protein concentrations, and the final S9 concentration was adjusted to 1.0 mg of protein/mL in PBS. The solutions were incubated at 37 °C, and at appropriate times, the aliquots from the reaction were combined with an equal volume of methanol and three times volume of n-hexane. The samples were vortexed for 2 min and centrifuged at 1750× g for 10 min. The upper layer (n-hexane) was collected and evaporated under nitrogen. The residue was reconstituted with 100 μL of methanol, sonicated for 10 s and subjected to LC-MS/MS analysis as described below.
The LC-MS/MS analysis was performed with the same instrument under the same conditions as in an earlier report, except for the following MS/MS-multiple reaction monitoring (MRM) setting and retention times: MRM: m/z 532→171, [M + H]^+ MKH-ACT adduct; m/z 664→187, [M + NH4]^+ MKH-SUC adduct; retention times: MKH-ACT, 1.7 min; and MKH-SUC, 1.1 min.
as §4

[5] = PLC/PRF/5 cells (HCC cell line), PLC/PRF/5 cells
[6] = S9 fraction of PLC/PRF/5 cells, S9 of PLC/PRF/5 cells
[7] = S9 fraction of SK-Hep-1 cells, S9 of SK-Hep-1 cells

Km [1, 5] [µM]	Km ([1]; SK-Hep-1 cells (HCC cell line)) [µM]	Km [4, 6] [µM]	Km [4, 7] [µM]	Vmax/Km of uptake, higher than those for MKH-ACT and MKH-DMG ([2]; in both cell lines (PLC/PRF/5 and SK-Hep-1))	Compound	Vmax (uptake of MKH-ester) [2]	Vmax (uptake of MKH-ester) [3]
447	556	13.6	3.24		CC(C)=CCC/C(C)=C/CC/C(C)=C/CC/C(C)=C/Cc1c(C)c(OC(=O)CN(C)C)c2ccccc2c1OC(=O)CN(C)C [MKH-DMG, Menahydroquinone-4 1,4-bis-N,N-dimethylglycinate hydrochloride]	28.9 [−4.27 to 62.1] nmol·mg of Protein^−1·h^−1	62.6 [4.69 to 121] nmol·mg of Protein^−1·h^−1
712	381	0.399	0.74	5- to 10 fold	CC(C)=CCC/C(C)=C/CC/C(C)=C/CC/C(C)=C/Cc1c(C)c(OC(=O)CCC(=O)O)c2ccccc2c1OC(=O)CCC(=O)O [MKH-SUC, Menahydroquinone-4 1,4-bis hemisuccinate]	345 [84.0 to 606] nmol·mg of Protein^−1·h^−1	261 [74.7 to 448] nmol·mg of Protein^−1·h^−1
31.9	227	1.42	1.32		CC(=O)Oc1c(C)c(C/C=C(\C)CC/C=C(\C)CC/C=C(\C)CCC=C(C)C)c(OC(C)=O)c2ccccc12 [MKH-ACT, Menahydroquinone-4 1,4-bis acetate]	2.76 [1.70 to 3.81] nmol·mg of Protein^−1·h^−1	20.3 [−9.47 to 50.0] nmol·mg of Protein^−1·h^−1
